This experiment has as its system Plasmodium berghei. Nature of the experiment: Luciferase/luciferin-expressing antifolate-resistant parasites were used to infect a culture of HepG2 cells that were pre-incubated with compounds. Infected hepatocytes emit light due to the luciferase reaction. Assay results are presented as the percent inhibition of light emission compared to control. […]. In kind it is functional. The note with it: sporozoite; for IC90: read-out: LUCIFERASE INFECTION ASSAY - IC90.

The mark [1] stands for this setting: read-out: LUCIFERASE INFECTION ASSAY - IC50.

Consider `CCOc1cc(C2NCC(c3ccccc3)c3c2[nH]c2ccccc32)ccc1OCC(C)C` (stereo not drawn), for which the concentration for an effect of 90% (IC90) was > 10 µM. For the same compound, the IC50 (PBLUC_HILL_SLOPE 4.52, PBLUC_R_SQUARED 0.531, read-out: LUCIFERASE INFECTION ASSAY - IC50) was determined as 6.16 µM.
For `CC(C)(C)c1cc(C(=O)NNC(=O)Nc2cccc(C(F)(F)F)c2)n(Cc2ccccc2)n1`, the IC90 was > 7.18 µM. The half-maximal inhibitory concentration (IC50) under setting [1] is > 7.18 µM.
Take `O=C(Nc1ccnn1Cc1cccc(Cl)c1)c1csc(-c2ccsc2)n1`: the IC90 is > 10 µM. In addition, the concentration for half-maximal inhibition (IC50) under setting [1] was > 10 µM.
With `Cc1ccc(-c2ccccc2C(=O)OCC(=O)Nc2ccc(C)c(Cl)c2)cc1`, the concentration for an effect of 90% (IC90) is > 10 µM. The IC50 (FFLUC_HILL_SLOPE 49.8, FFLUC_R_SQUARED 0.336, read-out: LUCIFERASE INFECTION ASSAY - IC50) is > 10 µM.
Take `COc1cccc(-c2noc(COC(=O)c3ccc(C)s3)n2)c1`: the IC90 was > 10 µM. Also, the concentration for half-maximal inhibition (IC50) under setting [1] was > 10 µM.
On to `CN1CCN(c2ccc(NC(=O)c3c[nH]c4ccc(Br)cc34)cn2)CC1`, for which the 90% effect concentration (IC90) is > 10 µM. In addition, the IC50 (PBLUC_HILL_SLOPE 3.31, PBLUC_R_SQUARED 0.596, read-out: LUCIFERASE INFECTION ASSAY - IC50) was 8.19 µM.
Regarding `O=C(CSc1nnc(C2CC2)o1)NCCC1=CCCCC1`, the IC90 is 3.33 µM. Moreover, the IC50 (PBLUC_HILL_SLOPE 15.1, PBLUC_R_SQUARED 0.587, read-out: LUCIFERASE INFECTION ASSAY - IC50) was 2.88 µM.
As for `O=C(/C=C/C1=C(N2CCOCC2)C(=C\c2ccc(Cl)cc2)/CC1)C(F)(F)F`, the IC90 is > 10 µM. Further, the IC50 under setting [1] was > 10 µM.
Take `CC(=O)c1ccc(-c2ccc(C(=O)Nc3cnc4c(cnn4C(C)C)c3)o2)cc1`: the concentration for an effect of 90% (IC90) amounted to 8.52 µM. In addition, under “HEPG2TOX_HILL_SLOPE 16.5, HEPG2TOX_R_SQUARED 0.628, PBLUC_HILL_SLOPE 4.19, PBLUC_R_SQUARED 0.524, read-out: LUCIFERASE INFECTION ASSAY - IC50”, the 50% inhibitory concentration (IC50) stood at 5.04 µM.
For the compound `O=C(Nc1ccncc1)c1cc([N+](=O)[O-])ccc1Sc1ccccc1`, the concentration for an effect of 90% (IC90) is > 9.39 µM. Moreover, the 50% inhibitory concentration (IC50) (PBLUC_HILL_SLOPE 0.732, PBLUC_R_SQUARED 0.239, read-out: LUCIFERASE INFECTION ASSAY - IC50) came to 3.82 µM.
For `O=C(Nc1ccc(SC(F)(F)F)cc1)Nc1ccc(Sc2ccc(Cl)cc2)nc1`, the IC90 was 5.24 µM. For the setting “HEPG2TOX_HILL_SLOPE 3.12, HEPG2TOX_R_SQUARED 0.943, PBLUC_HILL_SLOPE 7.91, PBLUC_R_SQUARED 0.378, read-out: LUCIFERASE INFECTION ASSAY - IC50”, the IC50 is 3.97 µM.
`Cc1ccc(S(=O)(=O)c2c(C)nn(C(C)(C)C)c2OC(=O)c2cccs2)cc1`: the IC90 was > 10 µM. The IC50 under setting [1] is > 10 µM.
Turning to `Cc1ccc(-n2nnnc2COc2cc(C)ccc2C(C)C)c(C)c1`, the IC90 was > 9.81 µM. The IC50 (PBLUC_HILL_SLOPE 3.14, PBLUC_R_SQUARED 0.65, read-out: LUCIFERASE INFECTION ASSAY - IC50) was 6.61 µM.
Take `COc1cc2c(cc1OC)C(c1cccs1)N(C(=O)Nc1cc(C)on1)CC2` (stereo not drawn): the IC90 was 2.7 µM. Also, the half-maximal inhibitory concentration (IC50) (HEPG2TOX_HILL_SLOPE 0.982, HEPG2TOX_R_SQUARED 0.92, PBLUC_HILL_SLOPE 3.46, PBLUC_R_SQUARED 0.391, read-out: LUCIFERASE INFECTION ASSAY - IC50) worked out at 1.43 µM.
Take `O=C(Cc1cccs1)Nc1nc2ccccc2nc1N1CCCC1`: the 90% effect concentration (IC90) was > 10 µM. The 50% inhibitory concentration (IC50) (HEPG2TOX_HILL_SLOPE 4.38, HEPG2TOX_R_SQUARED 0.169, read-out: LUCIFERASE INFECTION ASSAY - IC50) is > 10 µM.
Turning to `O=C(Nc1nn2cc(-c3ccccc3)nc2s1)C1CCC1`, the 90% effect concentration (IC90) turned out to be 1.39 µM. Moreover, under “FFLUC_HILL_SLOPE 1.5, FFLUC_R_SQUARED 0.884, PBLUC_HILL_SLOPE 0.386, PBLUC_R_SQUARED 0.673, read-out: LUCIFERASE INFECTION ASSAY - IC50”, the IC50 is 0.0047 µM.
As to `COCC/N=c1\scc(-c2ccc(OC(F)F)cc2)n1/N=C/c1ccccc1F`, the concentration for an effect of 90% (IC90) is > 10 µM. Moreover, the IC50 under setting [1] was > 10 µM.
Regarding `Cc1cccc(N(C)c2ccnc3c(-c4ccc(C(=O)NC5CC5)cc4)cnn23)c1`, the IC90 was 6.33 µM. Also, the IC50 (PBLUC_HILL_SLOPE 3.89, PBLUC_R_SQUARED 0.384, read-out: LUCIFERASE INFECTION ASSAY - IC50) came out at 3.6 µM.
Turning to `O=C(OCc1cc(=O)oc2cc(O)ccc12)c1c2c(nc3ccccc13)/C(=C/c1ccc([N+](=O)[O-])cc1)CCC2`, the concentration for an effect of 90% (IC90) was > 10 µM. In addition, under “FFLUC_HILL_SLOPE 2.06, FFLUC_R_SQUARED 0.63, PBLUC_HILL_SLOPE 4.67, PBLUC_R_SQUARED 0.673, read-out: LUCIFERASE INFECTION ASSAY - IC50”, the IC50 turned out to be 7.7 µM.
Regarding `O=S(=O)(C1=Cc2ccccc2CC1)N1CCOC2CCCCC21` (stereo not drawn), the IC90 was > 10 µM. The IC50 under setting [1] is > 10 µM.
Regarding `COC(=O)c1ccc(NC(=O)Cc2ccc(NC(=O)OC(C)(C)C)cc2)c(C)c1`, the IC90 was > 10 µM. Besides, the IC50 under setting [1] was > 10 µM.
On to `COc1cccc(-c2cn3c(-c4ccccc4)cnc3cn2)c1F`, for which the concentration for an effect of 90% (IC90) was 10.2 µM. Where the note is “PBLUC_HILL_SLOPE 10.4, PBLUC_R_SQUARED 0.353, read-out: LUCIFERASE INFECTION ASSAY - IC50”, the half-maximal inhibitory concentration (IC50) was 8.27 µM.
For `Cc1ccc(C)c(Oc2ccc(NC(=O)Nc3ccc(SC(F)(F)F)cc3)cn2)c1`, the IC90 was 2.68 µM. Further, the IC50 (FFLUC_HILL_SLOPE 0.447, FFLUC_R_SQUARED 0.395, HEPG2TOX_HILL_SLOPE 4.72, HEPG2TOX_R_SQUARED 0.964, PBLUC_HILL_SLOPE 32.1, PBLUC_R_SQUARED 0.384, read-out: LUCIFERASE INFECTION ASSAY - IC50) came out at 2.5 µM.
Regarding `C=CCN1C(=O)C(O)(c2cnc(N)s2)c2ccccc21` (stereo not drawn), the IC90 was > 10 µM. The 50% inhibitory concentration (IC50) under setting [1] was > 10 µM.
Turning to `CSc1sc(C(=O)Nc2ccc(Cl)cc2)c2c1S(=O)(=O)N(C)c1ccccc1-2`, the IC90 was > 7.32 µM. Under setting [1], the IC50 is > 7.32 µM.
Regarding `CNc1nc2cnc(-c3cccc4ccccc34)cc2n1-c1ccccc1`, the 90% effect concentration (IC90) was > 10 µM. The IC50 (PBLUC_HILL_SLOPE 1.54, PBLUC_R_SQUARED 0.64, read-out: LUCIFERASE INFECTION ASSAY - IC50) turned out to be 4.99 µM.
Turning to `CCOC(=O)c1sc(N)c(C#N)c1COC(=O)/C=C/c1cn(-c2ccccc2)nc1-c1ccc(C)cc1`, the IC90 was > 10 µM. Also, the IC50 (PBLUC_HILL_SLOPE 3.64, PBLUC_R_SQUARED 0.326, read-out: LUCIFERASE INFECTION ASSAY - IC50) was determined as 6.32 µM.
`Cc1[nH]c2ccccc2c1C(c1ccccc1)N1CCN(C)CC1` (stereo not drawn): the IC90 is > 10 µM. Besides, the IC50 under setting [1] was > 10 µM.
For `O=C(Nc1ccccc1)Nc1cccc(C(F)(F)F)c1`, the IC90 amounted to 4.4 µM. Also, the concentration for half-maximal inhibition (IC50) (PBLUC_HILL_SLOPE 13.3, PBLUC_R_SQUARED 0.408, read-out: LUCIFERASE INFECTION ASSAY - IC50) is 3.73 µM.
In the case of `Cc1c(C)c(C)c(C(=O)C2CCN(C(=O)c3ccc([N+](=O)[O-])o3)CC2)c(C)c1C`, the concentration for an effect of 90% (IC90) was > 8.28 µM. Further, where the note is “FFLUC_HILL_SLOPE 1.26, FFLUC_R_SQUARED 0.398, read-out: LUCIFERASE INFECTION ASSAY - IC50”, the half-maximal inhibitory concentration (IC50) was > 8.28 µM.
On to `Cn1c(-c2ccccc2)c(C(Nc2ccccn2)c2ccccc2O)c2ccccc21` (stereo not drawn), for which the IC90 is > 10 µM. Further, the IC50 (FFLUC_HILL_SLOPE 22.7, FFLUC_R_SQUARED 0.0514, read-out: LUCIFERASE INFECTION ASSAY - IC50) was > 10 µM.
As for `Oc1c(C(Nc2nccs2)c2cccnc2)ccc2cccnc12` (stereo not drawn), the IC90 worked out at 3.75 µM. The concentration for half-maximal inhibition (IC50) (HEPG2TOX_HILL_SLOPE 1.4, HEPG2TOX_R_SQUARED 0.615, PBLUC_HILL_SLOPE 3.49, PBLUC_R_SQUARED 0.793, read-out: LUCIFERASE INFECTION ASSAY - IC50) was 2 µM.
Regarding `Cc1cc(NC(=O)CNC(c2ccc(C3CCCCC3)cc2)C(C)C)n(C2CCS(=O)(=O)C2)n1` (stereo not drawn), the IC90 stood at 9.9 µM. The half-maximal inhibitory concentration (IC50) (PBLUC_HILL_SLOPE 35.5, PBLUC_R_SQUARED 0.454, read-out: LUCIFERASE INFECTION ASSAY - IC50) is 9.31 µM.
For the compound `CN(c1ccccc1)S(=O)(=O)c1ccc(C(=O)N2CCN(Cc3ccc(Cl)s3)CC2)cc1`, the 90% effect concentration (IC90) was > 10 µM. Moreover, under “PBLUC_HILL_SLOPE 1.66, PBLUC_R_SQUARED 0.494, read-out: LUCIFERASE INFECTION ASSAY - IC50”, the IC50 was found to be 8.02 µM.
Regarding `COC(=O)c1c(NC(C)=O)c2cc(NCC3CC=CCC3)cnc2n1CCc1c[nH]c2ccccc12` (stereo not drawn), the 90% effect concentration (IC90) is > 6.8 µM. In addition, the IC50 (PBLUC_HILL_SLOPE 16.1, PBLUC_R_SQUARED 0.211, read-out: LUCIFERASE INFECTION ASSAY - IC50) came out at 6.66 µM.
Take `C/N=c1\scc(-c2ccc(OC(F)F)cc2)n1/N=C/c1ccccc1Br`: the concentration for an effect of 90% (IC90) was found to be 3.26 µM. Moreover, under “HEPG2TOX_HILL_SLOPE 2.13, HEPG2TOX_R_SQUARED 0.347, PBLUC_HILL_SLOPE 0.898, PBLUC_R_SQUARED 0.747, read-out: LUCIFERASE INFECTION ASSAY - IC50”, the 50% inhibitory concentration (IC50) was 0.283 µM.
In the case of `Cc1ccc(CSCCNC(=O)c2ccc3c[nH]nc3c2)cc1`, the IC90 is > 10 µM. For the same compound, the IC50 (PBLUC_HILL_SLOPE 1.22, PBLUC_R_SQUARED 0.508, read-out: LUCIFERASE INFECTION ASSAY - IC50) was 4.61 µM.
As to `Cc1ccc(CSc2nnc(NCc3ccccc3)s2)cc1`, the IC90 was > 10 µM. Moreover, the IC50 (HEPG2TOX_HILL_SLOPE 6.81, HEPG2TOX_R_SQUARED 0.677, read-out: LUCIFERASE INFECTION ASSAY - IC50) was > 10 µM.
Consider `COc1ccc(Sc2ccc(NC(=O)c3ccc(Cl)cc3Cl)cc2C#N)cc1`, for which the IC90 was > 7.69 µM. The IC50 under setting [1] is > 7.69 µM.

One may read the IC50 as the concentration that inhibits the measured activity by half. The IC90 is the concentration needed for an effect of 90%.

Values taken from ChEMBL document CHEMBL4483862, “Open-source discovery of chemical leads for next-generation chemoprotective antimalarials” (2018).
